Reference: patent publication US10072001B2, “Tank-binding kinase inhibitor compounds” (Gilead Sciences, Inc., priority 2014, dated 2018)

How the values were obtained:
IKKε = IKKε (Homo sapiens (Human), UniProt Q14164); experiment: TR-FRET kinase assay, IKKε; assay type: biochemical; conditions: full length recombinant IKKε 0.3 nM, 2x Km ATP, 1 μM peptide, 240 min at 25° C.; geometric mean of minimum four determinations
Text: Biological Assay for TBK1 and IKKs:

TBK1 = TBK1 (Homo sapiens (Human), UniProt Q9UHD2); experiment: TR-FRET kinase assay, TBK1; conditions: read-out: TBK1-IC50; full length recombinant TBK1 2.5 nM, 2x Km ATP, 1 μM peptide, 240 min at 25° C.; geometric mean of minimum four determinations
TBK1, sequence (Q9UHD2 whole entry): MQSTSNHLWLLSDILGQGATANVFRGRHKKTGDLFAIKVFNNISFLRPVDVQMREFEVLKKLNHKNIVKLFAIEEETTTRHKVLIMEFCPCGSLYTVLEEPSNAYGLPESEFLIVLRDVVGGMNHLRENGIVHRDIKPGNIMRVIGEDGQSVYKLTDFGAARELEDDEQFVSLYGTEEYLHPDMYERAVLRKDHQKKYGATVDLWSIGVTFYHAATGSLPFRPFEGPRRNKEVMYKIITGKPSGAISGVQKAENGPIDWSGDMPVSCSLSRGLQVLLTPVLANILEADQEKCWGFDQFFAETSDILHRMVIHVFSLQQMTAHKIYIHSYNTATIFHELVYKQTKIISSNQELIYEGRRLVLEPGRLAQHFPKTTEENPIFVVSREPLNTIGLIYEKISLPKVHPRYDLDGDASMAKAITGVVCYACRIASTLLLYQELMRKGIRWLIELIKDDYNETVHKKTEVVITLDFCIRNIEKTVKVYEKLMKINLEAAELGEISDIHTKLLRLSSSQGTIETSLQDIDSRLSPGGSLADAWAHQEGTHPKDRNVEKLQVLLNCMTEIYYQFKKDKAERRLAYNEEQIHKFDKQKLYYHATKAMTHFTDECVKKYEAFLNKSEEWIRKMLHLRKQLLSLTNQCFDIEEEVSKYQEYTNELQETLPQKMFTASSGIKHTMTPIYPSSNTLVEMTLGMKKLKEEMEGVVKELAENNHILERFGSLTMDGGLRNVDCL

IKKε, sequence (Q14164 whole entry): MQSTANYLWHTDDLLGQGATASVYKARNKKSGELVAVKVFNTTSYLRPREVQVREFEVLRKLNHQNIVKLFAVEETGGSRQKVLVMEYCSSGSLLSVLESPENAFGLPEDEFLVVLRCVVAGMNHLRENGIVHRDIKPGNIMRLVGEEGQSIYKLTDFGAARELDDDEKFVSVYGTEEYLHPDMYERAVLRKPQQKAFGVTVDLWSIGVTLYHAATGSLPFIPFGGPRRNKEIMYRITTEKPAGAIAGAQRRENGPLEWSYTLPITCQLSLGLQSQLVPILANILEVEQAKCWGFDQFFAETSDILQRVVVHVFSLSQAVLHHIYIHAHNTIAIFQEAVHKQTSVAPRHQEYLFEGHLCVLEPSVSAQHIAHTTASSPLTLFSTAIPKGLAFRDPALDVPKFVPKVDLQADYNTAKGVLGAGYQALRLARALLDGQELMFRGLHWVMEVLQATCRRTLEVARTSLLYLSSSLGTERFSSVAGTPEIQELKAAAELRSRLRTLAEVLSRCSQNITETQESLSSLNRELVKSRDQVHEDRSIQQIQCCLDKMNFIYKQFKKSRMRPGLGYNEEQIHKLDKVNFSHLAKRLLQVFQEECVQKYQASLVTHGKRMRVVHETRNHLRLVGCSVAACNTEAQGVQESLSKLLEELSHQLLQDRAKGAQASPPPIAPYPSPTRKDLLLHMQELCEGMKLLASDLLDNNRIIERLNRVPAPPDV

Compound	IC50 (IKKε)	IC50 (TBK1)
N#Cc1cc(-c2ccnc3[nH]c(-c4cc[nH]c(=O)c4)cc23)ccc1OC1CCOCC1 [Example 217, 5-(2-(2-oxo-1,2-dihydropyridin-4-yl)-1H-pyrrolo[2,3-b]pyridin-4-yl)-2-((tetrahydro-2H-pyran-4-yl)oxy)benzonitrile]	34.7 nM	19.3 nM
N#Cc1cc(-c2ccnc3[nH]c(-c4ccc(N5CCN(C(=O)CO)CC5)cc4)cc23)ccc1OC1CCOCC1 [Example 56, 5-(2-(4-(4-(2-hydroxyacetyl)piperazin-1-yl)phenyl)-1H-pyrrolo[2,3-b]pyridin-4-yl)-2-((tetrahydro-2H-pyran-4-yl)oxy)benzonitrile]	15.8 nM	2.02 nM
CC1(COc2ccc(-c3ccnc4[nH]c(-c5ccc(N6CCOCC6)cc5)cc34)cc2C#N)COC1 [Example 12, 2-((3-methyloxetan-3-yl)methoxy)-5-(2-(4-morpholinophenyl)-1H-pyrrolo[2,3-b]pyridin-4-yl)benzonitrile]	41 nM	14.1 nM
N#Cc1cc(-c2ccnc3[nH]c(C4=CCNC4)cc23)ccc1OC1CCOCC1 [Example 37, 5-(2-(2,5-dihydro-1H-pyrrol-3-yl)-1H-pyrrolo[2,3-b]pyridin-4-yl)-2-((tetrahydro-2H-pyran-4-yl)oxy)benzonitrile]	46.3 nM	13.4 nM
COc1cc(-c2cc3c(-c4ccc(N5CC[C@@H](O)C5)c(C#N)c4)ncnc3[nH]2)ccc1N1CCN(C2COC2)CC1 [Example 142, (R)-2-(3-hydroxypyrrolidin-1-yl)-5-(6-(3-methoxy-4-(4-(oxetan-3-yl)piperazin-1-yl)phenyl)-7H-pyrrolo[2,3-d]pyrimidin-4-yl)benzonitrile]	14.7 nM	2.03 nM
N#Cc1cc(-c2ccnc3[nH]c(-c4ccc(N5CCOCC5)cc4)cc23)ccc1O[C@H]1CCN(C(=O)CO)C1 [Example 23, (S)-2-((1-(2-hydroxyacetyl)pyrrolidin-3-yl)oxy)-5-(2-(4-morpholinophenyl)-1H-pyrrolo[2,3-b]pyridin-4-yl)benzonitrile]	64.9 nM	16.2 nM
N#Cc1cc(-c2ccnc3[nH]c(-c4ccc(N5CCOCC5)cc4)cc23)ccc1OCC1CC1 [Example 80, 2-(cyclopropylmethoxy)-5-(2-(4-morpholinophenyl)-1H-pyrrolo[2,3-b]pyridin-4-yl)benzonitrile]	> 1000 nM	16.8 nM
CN(C)C(=O)/C=C/c1cc2c(-c3ccc(OC4CCOCC4)c(C#N)c3)ccnc2[nH]1 [Example 179, 3-(4-(3-cyano-4-((tetrahydro-2H-pyran-4-yl)oxy)phenyl)-1H-pyrrolo[2,3-b]pyridin-2-yl)-N,N-dimethylacrylamide]	69.8 nM	103 nM
N#Cc1cc(-c2ccnc3[nH]c(-c4cccc(N5CCOCC5)c4)nc23)ccc1OC1CCOCC1 [Example 308, 5-(2-(3-morpholinophenyl)-3H-imidazo[4,5-b]pyridin-7-yl)-2-((tetrahydro-2H-pyran-4-yl)oxy)benzonitrile]	18.1 nM	25.1 nM
N#Cc1cc(-c2ncnc3[nH]c(-c4cccc(N5CCOCC5)c4)cc23)ccc1N1CC(O)C1 [Example 110, 2-(3-hydroxyazetidin-1-yl)-5-(6-(3-morpholinophenyl)-7H-pyrrolo[2,3-d]pyrimidin-4-yl)benzonitrile]	57.4 nM	12.6 nM
CC(C)(C)OC(=O)N1CC=C(c2cc3c(-c4ccc(OC5CCOCC5)c(C#N)c4)ccnc3[nH]2)C1 [Example 36, tert-butyl 3-(4-(3-cyano-4-((tetrahydro-2H-pyran-4-yl)oxy)phenyl)-1H-pyrrolo[2,3-b]pyridin-2-yl)-2,5-dihydro-1H-pyrrole-1-carboxylate]	79 nM	38.4 nM
4-(2-cyano-4-(2-(4-(4-(2,2-difluoroethyl)piperazin-1-yl)phenyl)-3H-imidazo[4,5-b]pyridin-7-yl)phenoxy)piperidine-1-sulfonamide [Example 263]	6.32 nM	3.07 nM
COc1cc(-c2cc3c(-c4ccc(OC5CCOCC5)c(C#N)c4)c(F)cnc3[nH]2)ccc1N1CCOCC1 [Example 172, 5-(5-fluoro-2-(3-methoxy-4-morpholinophenyl)-1H-pyrrolo[2,3-b]pyridin-4-yl)-2-((tetrahydro-2H-pyran-4-yl)oxy)benzonitrile]	260 nM	30.2 nM
N#Cc1cc(-c2ncnc3[nH]c(-c4ccc(CC(=O)O)cc4)cc23)ccc1OC1CCOCC1 [Example 168, 2-(4-(4-(3-Cyano-4-((tetrahydro-2H-pyran-4-yl)oxy)phenyl)-7H-pyrrolo[2,3-d]pyrimidin-6-yl)phenyl)acetic acid]	15.7 nM	13.7 nM

Continued, values first:

IC50 (IKKε)	IC50 (TBK1)	Compound
6.42 nM	3.75 nM	CS(=O)(=O)c1ccc(-c2cc3c(-c4ccc(OC5CCOCC5)c(C#N)c4)ccnc3[nH]2)cc1 [Example 42, 5-(2-(4-(methylsulfonyl)phenyl)-1H-pyrrolo[2,3-b]pyridin-4-yl)-2-((tetrahydro-2H-pyran-4-yl)oxy)benzonitrile]
13.8 nM	4.32 nM	N#CCC(=O)N1CC[C@@H](Oc2ccc(-c3ccnc4[nH]c(-c5ccc(N6CCOCC6)cc5)cc34)cc2C#N)C1 [Example 16, (R)-2-((1-(2-cyanoacetyl)pyrrolidin-3-yl)oxy)-5-(2-(4-morpholinophenyl)-1H-pyrrolo[2,3-b]pyridin-4-yl)benzonitrile]
14.2 nM	6.09 nM	CC(=O)N1CCC(Oc2ccc(-c3ncnc4[nH]c(-c5ccc(N6CCOCC6)cc5)nc34)cc2C#N)CC1 [Example 249, 2-((1-acetylpiperidin-4-yl)oxy)-5-(8-(4-morpholinophenyl)-9H-purin-6-yl)benzonitrile]
5.79 nM	5.13 nM	N#Cc1cc(-c2ncnc3[nH]c(-c4ccc(Cn5ccnc5)cc4)cc23)ccc1OC1CCOCC1 [Example 114, 5-(6-(4-((1H-imidzol-1-yl)methyl)phenyl)-7H-pyrrolo[2,3-d]pyrimidin-4-yl)-2-((tetrahydro-2H-pyran-4-yl)oxy)benzonitrile]
3.37 nM	2.5 nM	CN1CCN(c2ccc(-c3cc4c(-c5ccc(OC6CCOCC6)c(C#N)c5)ncnc4[nH]3)cc2)CC1 [Example 219, 5-(6-(4-(4-methylpiperazin-1-yl)phenyl)-7H-pyrrolo[2,3-d]pyrimidin-4-yl)-2-((tetrahydro-2H-pyran-4-yl)oxy)benzonitrile]
3.29 nM	1.34 nM	COc1ccc(-c2cc3c(-c4ccc(OC5CCN(C(=O)CO)CC5)c(C#N)c4)ncnc3[nH]2)cc1 [Example 126, 2-((1-(2-hydroxyacetyl)piperidin-4-yl)oxy)-5-(6-(4-methoxyphenyl)-7H-pyrrolo[2,3-d]pyrimidin-4-yl)benzonitrile]
2.62 nM	0.9 nM	COc1cc(-c2cc3c(-c4ccc(OC5CCN(C(=O)CO)CC5)c(C#N)c4)ncnc3[nH]2)ccc1N1CCOCC1 [Example 125, 2-((1-(2-hydroxyacetyl)piperidin-4-yl)oxy)-5-(6-(3-methoxy-4-morpholinophenyl)-7H-pyrrolo[2,3-d]pyrimidin-4-yl)benzonitrile]
7.91 nM	15.8 nM	CC(=O)Nc1ccc(-c2cc3c(-c4ccc(OC5CCOCC5)c(C#N)c4)ccnc3[nH]2)cn1 [Example 236, N-(5-(4-(3-cyano-4-((tetrahydro-2H-pyran-4-yl)oxy)phenyl)-1H-pyrrolo[2,3-b]pyridin-2-yl)pyridin-2-yl)acetamide]
3.43 nM	4.99 nM	N#Cc1cc(-c2ncnc3[nH]c(-c4cccc(CN5CCOCC5)c4)cc23)ccc1OC1CCN(C(=O)CO)CC1 [Example 184, 2-((1-(2-hydroxyacetyl)piperidin-4-yl)oxy)-5-(6-(3-(morpholinomethyl)phenyl)-7H-pyrrolo[2,3-d]pyrimidin-4-yl)benzonitrile]
9.82 nM	3.63 nM	N#Cc1cc(-c2ncnc3[nH]c(-c4ccc(N5CCOCC5)cc4)nc23)ccc1OC1CCN(C(=O)C(F)F)CC1 [Example 248, 2-((1-(2,2-difluoroacetyl)piperidin-4-yl)oxy)-5-(8-(4-morpholinophenyl)-9H-purin-6-yl)benzonitrile]
5.59 nM	3.08 nM	CNC(=O)c1ccc(-c2cc3c(-c4ccc(OC5CCOCC5)c(C#N)c4)ccnc3[nH]2)cc1 [Example 41, 4-(4-(3-cyano-4-((tetrahydro-2H-pyran-4-yl)oxy)phenyl)-1H-pyrrolo[2,3-b]pyridin-2-yl)-N-methylbenzamide]
14.1 nM	7.91 nM	Cc1ncc(-c2cc3c(-c4ccc(OC5CCOCC5)c(C#N)c4)ncnc3[nH]2)s1 [Example 190, 5-(6-(2-methylthiazol-5-yl)-7H-pyrrolo[2,3-d]pyrimidin-4-yl)-2-((tetrahydro-2H-pyran-4-yl)oxy)benzonitrile]
7.37 nM	2.28 nM	COc1cc(-c2cc3c(-c4ccc(OC5CCOCC5)c(C#N)c4)ncnc3[nH]2)ccc1N1CCN(S(C)(=O)=O)CC1 [Example 135, 5-(6-(3-methoxy-4-(4-(methylsulfonyl)piperazin-1-yl)phenyl)-7H-pyrrolo[2,3-d]pyrimidin-4-yl)-2-((tetrahydro-2H-pyran-4-yl)oxy)benzonitrile]
4.71 nM	3.68 nM	Cn1cc(-c2cc3c(-c4ccc(OC5CCOCC5)c(C#N)c4)ccnc3[nH]2)cn1 [Example 84, 5-(2-(1-methyl-1H-pyrazol-4-yl)-1H-pyrrolo[2,3-b]pyridin-4-yl)-2-((tetrahydro-2H-pyran-4-yl)oxy)benzonitrile]
13.8 nM	3.89 nM	N#Cc1nc(-c2ccnc3[nH]c(-c4ccc(N5CCOCC5)cc4)cc23)ccc1OC1CCOCC1 [Example 86, 6-(2-(4-morpholinophenyl)-1H-pyrrolo[2,3-b]pyridin-4-yl)-3-((tetrahydro-2H-pyran-4-yl)oxy)picolinonitrile]
